Drawing on ChEMBL document CHEMBL2440087, “Novel complex crystal structure of prolyl hydroxylase domain-containing protein 2 (PHD2): 2,8-Diazaspiro[4.5]decan-1-ones as potent, orally bioavailable PHD2 inhibitors” (Bioorg Med Chem, 2013), this text covers AUCt/dose and AUC/dose for two compounds.

Data set [1] relates to Mus musculus. In words: Dose normalized AUC (0 to t) in C57BL/6 mouse at 10 mg/kg, po. The class given is ADME, organism-based. Set-up: dose 10 mg/kg, route oral. As to conditions: in vivo.
The subject of data set [2] is Mus musculus. In words: Dose normalized AUC in C57BL/6 mouse at 10 mg/kg, po. Type of data set: ADME, organism-based. Also noted: dose 10 mg/kg, route oral. The settings on record: in vivo.

In the data set with Mus musculus [1], `Cc1cc(CCC(=O)O)cnc1CN1CCC2(CC1)CCN(c1ccc(-c3ccccc3)cc1)C2=O` yielded an AUCt/dose of 22.6 ng·h/mL/mg/kg. `Cc1cccnc1CN1CCC2(CC1)CCN(c1ccc(-c3ccc(C(=O)O)cc3)cc1)C2=O` gave an AUC/dose with Mus musculus [2] of 634 ng·h/mL/mg/kg.
